Data: ChEMBL document CHEMBL5338704, “Discovery of novel phenylhydrazone-based oxindole-thiolazoles as potent antibacterial agents toward Pseudomonas aeruginosa” (Eur J Med Chem, 2022)
≈ marks a conversion by molar mass, not a printed value. Calls of active or inactive are those of the source. No cut-off for these calls is given here.

Legend:
Pseudomonas aeruginosa [1] = test: Antibacterial activity against Pseudomonas aeruginosa assessed as inhibition of bacterial growth by micro-broth dilution assay; assay type: functional
Pseudomonas aeruginosa [2] = test: Induction of intracellular ROS accumulation in Pseudomonas aeruginosa assessed increase in fluorescence intensity; assay type: functional, organism-based
Cell membrane [3] = test: Induction of inner membrane damage in Pseudomonas aeruginosa incubated for 6 hrs by Calcein AM dye based fluorescence based assay; assay type: subcellular
Pseudomonas aeruginosa [4] = test: Antibacterial activity against Pseudomonas aeruginosa ATCC 27853 assessed as inhibition of bacterial growth measured after 6 hrs; assay type: functional, organism-based
Pseudomonas aeruginosa [5] = test: Induction of resistance development in Pseudomonas aeruginosa ATCC 27853 assessed as fold increase in MIC treated over 30 serial passages; assay type: functional
Cell membrane [6] = test: Induction of cell membrane damage in Pseudomonas aeruginosa assessed as increase in nucleic acid leakage at 0.5 to 8 times MIC; assay type: subcellular
Pseudomonas aeruginosa [7] = test: Inhibition of biofilm formation in Pseudomonas aeruginosa by crystal violet staining based analysis; assay type: functional, organism-based; conditions: dose 0.5-8 µg/ml
Cell membrane [8] = test: Induction of cytoplasmic membrane depolarization in Pseudomonas aeruginosa assessed as increase in fluorescence intensity MIC by DiSC35 dye based fluorescence analysis; assay type: subcellular
[9] = Selectivity index, ratio of HC50 for hemolytic activity in RBC (unknown origin) assessed as hemolysis to MIC for antibacterial activity against Pseudomonas aeruginosa assessed as inhibition of bacterial growth by micro-broth dilution assay; assay type: toxicity; conditions: red blood cells (erythrocytes)
Cell membrane [10] = test: Induction of outer membrane permeabilization in Pseudomonas aeruginosa assessed as increase in fluorescence intensity at 0.5 to 8 microg/ml by NPN-dye based fluorescence analysis; conditions: dose 0.5-8 µg/ml
Cell membrane [11] = test: Induction of inner membrane damage in Pseudomonas aeruginosa assessed as decrease in green fluorescence cells at 0.5 to 8 times MIC incubated for 6 hrs by Calcein AM dye based fluorescence based assay; assay type: subcellular
Cell membrane [12] = test: Induction of inner membrane damage in Pseudomonas aeruginosa assessed as increase in red fluorescence cells at 0.5 to 8 times MIC incubated for 6 hrs by Calcein AM dye based fluorescence based assay; assay type: subcellular
Pseudomonas aeruginosa [13] = test: Antibacterial activity against Pseudomonas aeruginosa ATCC 27853 assessed as inhibition of bacterial growth by micro-broth dilution assay; assay type: functional
Pseudomonas aeruginosa [14] = test: Induction of oxidative stress in Pseudomonas aeruginosa assessed as decrease in GSH activity at 0.5 to 8 times MIC by Ellman's assay; assay type: functional, organism-based
DNA [15] = test: Binding affinity to Pseudomonas aeruginosa DNA assessed as reduction in acridine orange-DNA complex formation by competitive binding assay; assay type: nucleic-acid assay
Staphylococcus aureus [16] = test: Antibacterial activity against Staphylococcus aureus ATCC 25923 assessed as inhibition of bacterial growth by micro-broth dilution assay; assay type: functional
Klebsiella pneumoniae = test: Antibacterial activity against Klebsiella pneumoniae assessed as inhibition of bacterial growth by micro-broth dilution assay; assay type: functional
Pseudomonas aeruginosa [17] = test: Inhibition of biofilm formation in Pseudomonas aeruginosa assessed as removal of mature biofilm by crystal violet staining based analysis; assay type: functional, organism-based; conditions: dose 0.5-8 µg/ml
Pseudomonas aeruginosa [18] = test: Antibacterial activity against Pseudomonas aeruginosa assessed as reduction in LDH activity at 8 times MIC; assay type: functional; parameters: scale not given: the % may be the effect or the level left
Enterococcus faecalis = test: Antibacterial activity against Enterococcus faecalis assessed as inhibition of bacterial growth by micro-broth dilution assay; assay type: functional
Staphylococcus aureus [19] = test: Antibacterial activity against methicillin resistant Staphylococcus aureus assessed as inhibition of bacterial growth by micro-broth dilution assay; assay type: functional
Escherichia coli [20] = test: Antibacterial activity against Escherichia coli assessed as inhibition of bacterial growth by micro-broth dilution assay; assay type: functional
Acinetobacter baumannii = test: Antibacterial activity against Acinetobacter baumannii assessed as inhibition of bacterial growth by micro-broth dilution assay; assay type: functional
DNA [21] = test: Binding affinity to Pseudomonas aeruginosa DNA; assay type: nucleic-acid assay
Cell membrane [22] = test: Induction of cell membrane damage in Pseudomonas aeruginosa assessed as increase in protein leakage; assay type: subcellular
Staphylococcus aureus [23] = test: Antibacterial activity against Staphylococcus aureus ATCC 29213 assessed as inhibition of bacterial growth by micro-broth dilution assay; assay type: functional
Pseudomonas aeruginosa [24] = test: Inhibition of biofilm formation in Pseudomonas aeruginosa at 0.5 to 8 microg/ml by crystal violet staining based analysis; assay type: functional; conditions: dose 0.5-8 µg/ml; at 0.5 to 8 µg/mL
Pseudomonas aeruginosa [25] = test: Antibacterial activity against Pseudomonas aeruginosa assessed as […] inactivation at 0.5 to 8 times MIC by alamar blue staining based analysis; assay type: functional, organism-based
Staphylococcus aureus [26] = test: Antibacterial activity against Staphylococcus aureus assessed as inhibition of bacterial growth by micro-broth dilution assay; assay type: functional
Pseudomonas aeruginosa [27] = test: Induction of resistance development in Pseudomonas aeruginosa ATCC 27853 treated over 30 serial passages; assay type: functional, organism-based
Pseudomonas aeruginosa [28] = test: Antibacterial activity against Pseudomonas aeruginosa assessed as reduction in LDH activity at 0.5 to 8 times MIC; assay type: functional, organism-based
[29] = Hemolytic activity in RBC (unknown origin) assessed as hemolysis; assay type: toxicity, cell-based, Erythrocyte; conditions: red blood cells (erythrocytes)
Cell membrane [30] = test: Induction of cytoplasmic membrane depolarization in Pseudomonas aeruginosa assessed as increase in fluorescence intensity at 0.5 to 4 times MIC by DiSC35 dye based fluorescence analysis; assay type: subcellular; conditions: time 30.0 min, TDE = time-dependent effect
Cell membrane [31] = test: Induction of outer membrane permeabilization in Pseudomonas aeruginosa assessed as increase in fluorescence intensity by NPN-dye based fluorescence analysis; assay type: subcellular; conditions: dose 0.5-8 µg/ml
Pseudomonas aeruginosa [32] = test: Antibacterial activity against Pseudomonas aeruginosa ATCC 27853 assessed as inhibition of bacterial growth at 1 times MIC measured upto 14 hrs; assay type: functional, organism-based
Pseudomonas aeruginosa [33] = test: Potency index, ratio of norfloxacin MIC to test compound MIC for antibacterial activity against Pseudomonas aeruginosa assessed as inhibition of bacterial growth by micro-broth dilution assay; assay type: functional
Escherichia coli [34] = test: Antibacterial activity against Escherichia coli ATCC 25922 assessed as inhibition of bacterial growth by micro-broth dilution assay; assay type: functional

**Q.** Which MIC (Pseudomonas aeruginosa [1]) does the source give for Cn1ccnc1SCC(O)CN1C(=O)/C(=N\Nc2ccc(C(=O)O)cc2)c2ccccc21 (configuration not stated) here?
**A.** 1 µg/mL (≈ 2.21 µM)

**Q.** And the Activity (Pseudomonas aeruginosa [2])?
**A.** Dose-Dependent Effect

**Q.** What about the Activity (Cell membrane [3]) of the same compound?
**A.** Dose-Dependent Effect

**Q.** And the Activity (Pseudomonas aeruginosa [4])?
**A.** Active

**Q.** And the “fold change (FC)” value (Pseudomonas aeruginosa [5])?
**A.** 32

**Q.** And the Activity (Cell membrane [6])?
**A.** Active

**Q.** What about the inhibition (Pseudomonas aeruginosa [7]) of the same compound?
**A.** Dose-Dependent Effect

**Q.** What about the Activity (Cell membrane [8]) of the same compound?
**A.** Dose-Dependent Effect

**Q.** And the selectivity ratio [9]?
**A.** > 512

**Q.** And the Activity (Cell membrane [10])?
**A.** Active

**Q.** And the Activity (Cell membrane [11])?
**A.** Active

**Q.** What about the Activity (Cell membrane [12]) of the same compound?
**A.** Active

**Q.** And the MIC (Pseudomonas aeruginosa [13])?
**A.** 8 µg/mL (≈ 17.7 µM)

**Q.** And the Activity (Pseudomonas aeruginosa [14])?
**A.** Active

**Q.** And the Activity (DNA [15])?
**A.** Active

**Q.** And the MIC (Staphylococcus aureus [16])?
**A.** 8 µg/mL (≈ 17.7 µM)

**Q.** And the MIC (Klebsiella pneumoniae)?
**A.** 2 µg/mL (≈ 4.43 µM)

**Q.** And the inhibition (Pseudomonas aeruginosa [17])?
**A.** Dose-Dependent Effect

**Q.** And the Activity (Pseudomonas aeruginosa [18])?
**A.** <15%

**Q.** And the MIC (Enterococcus faecalis)?
**A.** 4 µg/mL (≈ 8.86 µM)

**Q.** And the MIC (Staphylococcus aureus [19])?
**A.** 8 µg/mL (≈ 17.7 µM)

**Q.** What about the MIC (Escherichia coli [20]) of the same compound?
**A.** 32 µg/mL (≈ 70.9 µM)

**Q.** And the MIC (Acinetobacter baumannii)?
**A.** 32 µg/mL (≈ 70.9 µM)

**Q.** And the Activity (DNA [21])?
**A.** Active

**Q.** And the Activity (Cell membrane [22])?
**A.** Dose-Dependent Effect

**Q.** What about the MIC (Staphylococcus aureus [23]) of the same compound?
**A.** 16 µg/mL (≈ 35.4 µM)

**Q.** What about the “inhibition (INH)” value (Pseudomonas aeruginosa [24]) of the same compound?
**A.** 15%

**Q.** And the Activity (Pseudomonas aeruginosa [25])?
**A.** Active

**Q.** What about the MIC (Staphylococcus aureus [26]) of the same compound?
**A.** 8 µg/mL (≈ 17.7 µM)

**Q.** What about the Activity (Pseudomonas aeruginosa [27]) of the same compound?
**A.** Active

**Q.** What about the Activity (Pseudomonas aeruginosa [28]) of the same compound?
**A.** Active

**Q.** And the HC50 [29]?
**A.** > 512 µg/mL

**Q.** And the Activity (Cell membrane [30])?
**A.** Tde

**Q.** And the Activity (Cell membrane [31])?
**A.** Dose-Dependent Effect

**Q.** And the Activity (Pseudomonas aeruginosa [32])?
**A.** Active

**Q.** And the Ratio (Pseudomonas aeruginosa [33])?
**A.** 8

**Q.** And the MIC (Escherichia coli [34])?
**A.** 4 µg/mL (≈ 8.86 µM)
